Test results reported in article PMC12624434 (ACS Pharmacology & Translational Science, 2025).
“Also recorded” adds a separate entry of the source. Marks after values point to notes of the source that are not given here.

Experiments:
[1] = molecular target: T1, NRP1 b1 domain (Homo sapiens, UniProt O14786); test: SPR binding to immobilized NRP1 b1 domain (Biacore 4000, CM5 chip)
T1 construct: with the purified recombinant NRP1 b1 domain immobilized on the chip; inferred from Ni-NTA capture), TEV-cleavable (cleaved yes); made in house; host or cells: E. coli Rosetta (DE3)
T1 sequence (O14786 275-424 limits assumed): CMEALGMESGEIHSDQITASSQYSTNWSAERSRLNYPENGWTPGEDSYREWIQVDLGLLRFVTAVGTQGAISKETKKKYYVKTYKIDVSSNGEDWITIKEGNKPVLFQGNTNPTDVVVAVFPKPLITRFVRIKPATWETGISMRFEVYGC
Procedure: Surface Plasmon Resonance experiments were performed using a Biacore 4000 instrument at a constant temperature of 25 °C. Sensor chips, buffer stock solutions, and immobilization reagents were purchased from GE Healthcare. Recombinant human NRP1-b1 was produced in-house and recombinant human NRP1-ECD (extracellular domain) was purchased from ACRO (catalogue number NR1-H5A228). All other reagents were obtained from Sigma.
PBS containing 0.05% surfactant P20 was used as the running buffer during immobilization. NRP1-b1 was immobilized onto a CM5 chip using random amine coupling. The four flow cells were treated in the same way to optimize throughput. In summary, spots 1 and 2 were activated with the coupling reagents EDC and NHS for 10 min. NRP1-b1 at a concentration of 20 μg/mL in 10 mM sodium acetate pH 5 was injected onto the surface for 10 and 5 min in spots 1 and 2, respectively to generate surfaces with high and low density. […] The unmodified spot 3 was used as a reference.
PBS buffer containing 0.05% surfactant P20 and 3% DMSO was used as the running buffer and sample dilution buffer throughout these experiments. Dose–responses were obtained using a 2-fold sample dilution from 16 μM to 31 nM, using an injection time of 60 s. Surface regeneration between injections was not necessary, but a wash step with 1 M NaCl was included after injection of the highest concentration sample for each compound.
Binding curves were corrected for variations in DMSO concentration and normalized by molecular weight. Binding results to high and low-density surfaces were processed independently and the average ± SD is presented. K Ds reported are derived from steady-state binding responses and therefore correspond to the equilibrium binding affinity of the compounds.

[2] = tested on: P-p38 in human brain endothelial cell line hCMEC/D3; test: p38 phosphorylation in hCMEC/D3 cells (immunoblotting); assay type: cell-based
Procedure: Cell lysates of the human brain endothelial cell line hCMEC/D3 were prepared in RIPA buffer containing 0.1% SDS, protease inhibitor cocktail 2 and phosphatase inhibitor cocktail (Sigma-Aldrich). Proteins were separated by SDS-PAGE and transferred to nitrocellulose by wet electrotransfer. Membranes were blocked with 5% milk in Tris-buffered saline (TBS) overnight at 4 °C and then incubated with the appropriate primary antibody diluted in TBS containing 0.1% Tween-20 and 1% BSA for 2 h and 30 min at rt; the primary antibodies used were specific for phospho P-p38, p38 (1:1000; Cell Signaling Technology) and GADPH (1:10000; Merck). Membranes were washed with 0.1% Tween-20 in TBS and then incubated with goat antimouse or goat antirabbit horseradish peroxidase (HRP)-conjugated IgG (GE Healthcare) diluted 1:10,000 or 1:5000, respectively, with 0.1% Tween-20, 1% BSA in PBS. Membranes were developed using the ECL reagents (Roche) and images were acquired with the Bio-Rad ChemiDoc MP Imaging System and the Bio-Rad Image Lab software (version 6.0.1). Protein bands were quantified using ImageJ software version 1.52a (NIH Bethesda), whereby signal intensity was normalized to signal intensity from GADPH from the same sample as a loading control. Phosphorylation levels were normalized against the total levels of p38. Densitometric quantification of three independent immunoblots was determined by changes in protein or phosphoprotein content normalized to GADPH total protein loading controls, with values expressed as fold increase. Data are shown as mean ± SD. Statistical analysis included one-way ANOVA with significance levels set at 0.05, followed by posthoc Dunnett’s tests.

[3] = tested on: total Na+ currents in rat DRG neurons; test: Whole-cell patch-clamp of Na+ currents in dissociated DRG neurons; assay type: cell-based; conditions: for V 1/2 activation, total Na+ / V 1/2 inactivation, total Na+: mean ± SEM (n cells)
Procedure: Recordings were obtained from acutely dissociated DRG neurons obtained from female rats as described earlier. Patch-clamp recordings were performed at room temperature (22–24 °C). Currents were recorded using an EPC 10 Amplifier-HEKA (HEKA Elektronik, Ludwigshafen, Germany) linked to a computer with Patchmaster software.
To determine the effect of VEGFA application on voltage-gated sodium currents, we incubated DRG neurons for 30 min with recombinant rat VEGFA, 1 nM (Cat#P4853, Abnova, Taipei, Taiwan) before whole-cell patch-clamp recordings. […] For the control condition, DRG neurons were incubated for 30 min with DMSO at a final concentration of 0.1%.
For Na^+ current (I Na+) recordings, the external solution contained (in mM): 130 NaCl, 3 KCl, 30 tetraethylammonium chloride, 1 CaCl2, 0.5 CdCl2, 1 MgCl2, 10 D-glucose and 10 HEPES (pH 7.3 adjusted with NaOH, and mOsm/L = 315). Patch pipettes were filled with an internal solution containing (in mM): 140 CsF, 1.1Cs-EGTA, 10 NaCl, and 15 HEPES (pH 7.3 adjusted with CsOH, and mOsm/L = 300). Peak Na^+ current was acquired by applying 150 ms voltage steps from – 70 to +60 mV in 5-mV increments from a holding potential of – 60 mV to obtain the current–voltage (I–V) relation.
Normalization of currents to each cell’s capacitance (pF) was performed to allow for collection of current density data. For I–V curves, functions were fitted to data using a nonlinear least-squares analysis. I–V curves were fitted using double Boltzmann functions: f=a+g1/(1+exp((x−V1/21)/k1))+g2/(1+exp(−(x−V1/22)/k2)) where x is the membrane potential, V 1/2 is the midpoint potential and k is the corresponding slope factor for single Boltzmann functions. Double Boltzmann fits were used to describe the shape of the curve, not to imply the existence of separate channel populations. Numbers 1 and 2 simply indicate first and second midpoints; a along with g are fitting parameters.
Activation curves were obtained from the I–V curves by dividing the peak current at each depolarizing step by the driving force according to the equation: G = I/(V mem – E rev), where I is the peak current, V mem is the membrane potential and E rev is the reversal potential. The conductance (G) was normalized against the maximum conductance (G max). Steady-state inactivation (SSI) curves were obtained by applying an H-infinity protocol that consisted of 1-s conditioning prepulses from −120 to +10 mV in 10-mV increments followed by a 200 ms test pulse to +10 mV. Inactivation curves were obtained by dividing the peak current recorded at the test pulse by the maximum current (I max). Activation and SSI curves were fitted with the Boltzmann equation.

[4] = tested on: VEGFA-induced aversion to mechanical stimuli in rats; test: Conditioned place aversion (CPA) to 10 g vF stimulation after VEGFA; assay type: in vivo, rat
Procedure: The procedure was performed as reported previously. Briefly, rats were gently restrained in a fabric cloth and given an intraplantar injection in the hind-paw containing VEGFA165 (10 nM) and compound (EG00229 or 12h, at 30 or 10 μM) alone or in combination in 50 μL of PBS vehicle (NaCl 137 mM, KCl 2.5 mM, Na2HPO4 10 mM, and KH2PO4 1.8 mM), using a 31G needle.
The experiments were conducted in a two-chamber device based on the protocols from and as previously described. The protocol includes 4 × 10 min of sequential tests of preconditioning (10 min), conditioning (2 × 10 min) and testing (10 min). During preconditioning, the animal is allowed free access to two connected chambers (30 × 30 × 19 cm), each associated with a scented lip-balm applied to the walls. Immediately following preconditioning, a divider was applied between the chambers, and the rats were conditioned to either stimuli or no-stimuli for 10 min in each chamber. The stimuli consisted of repeated stimulation with a 10 g VF-filament every 30 s for the 10 min that the subject was contained in that chamber, while no stimuli (NS) was applied in the other chamber. The order and side of conditioning was alternated between subjects. Following the conditioning, the divider was removed, and the rat was allowed free access to both chambers for the 10 min test. Animal movements in each chamber were recorded by a camera above, and the duration of time spent in each chamber was recorded during preconditioning and test phase. Decreased time spent in a chamber during the test versus preconditioning indicated avoidance for that chamber and was calculated as a CPA-score: time in VF-chamber during preconditioning – time in VF-chamber during test.

N=C(N)NCCC[C@H](NC(=O)c1sccc1NS(=O)(=O)c1cc(NCc2csc(N3CCNCC3)n2)cc2cccnc12)C(=O)O.O=CO [Compound 12h, (2S)-5-Guanidino-2-[[3-[[6-[(2-piperazin-1-ylthiazol-4-yl)-methylamino]-8-quinolyl]-sulfonylamino]-thiophene-2-carbonyl]-amino]-pentanoic Acid, Formic Acid]
kon ([1]; Figure 2B, SPR-derived binding parameters, read-out: ka): 1.16e+06 M⁻¹ s⁻¹ | Kd ([1]; steady-state binding, 25 °C, mean ± SD, read-out: SPR NRP1 b1 domain equilibrium KD): 600 ± 100 nM | p38 phosphorylation when added alone ([2]; 30 μM alone, 5 min): did not induce p38 phosphorylation | effect on VEGFA-induced p38 phosphorylation ([2]; 30 μM, 15 min prior to VEGFA165 stimulation): prevented VEGFA-induced p38 phosphorylation | effect on Na+ currents, alone ([3]; 30 μM alone, 30 min): Neither EG00229 nor 12h alone had any obvious effect | effect on VEGFA-induced increase in Na+ currents and current density ([3]; 30 μM, then VEGFA165 1 nM 30 min, small-sized DRG neurons): equally reduced; also recorded: prevented the VEGFA-mediated increase in total sodium currents | V 1/2 activation, total Na+ ([3]; compound 30 μM + VEGFA): –16.420 ± 0.916 (10) ^b mV | V 1/2 inactivation, total Na+ ([3]; compound 30 μM + VEGFA): –47.632 ± 1.411 (10) mV | V 1/2 activation, total Na+ ([3]; compound alone, 30 μM): –16.819 ± 0.840 (10) ^b mV | V 1/2 inactivation, total Na+ ([3]; compound alone, 30 μM): –52.032 ± 2.123 (10) mV | VEGFA-induced stimulus-aversion (time in vF-conditioned chamber), Figure S5 ([4]; 10 μM coinjected with VEGFA 10 nM): blocked by 10 μM 12h in males | effect on VEGFA-induced aversion in CPA-paradigm ([4]; 10 μM, male rats): showed significant reduction in VEGFA-induced aversion | VEGFA-induced aversion (time in vF-conditioned chamber) ([4]; 30 μM coinjected with VEGFA 10 nM, male and female rats): prevented significant stimulus-aversion from VEGFA in both sexes; also recorded: the aversion was prevented | CPA-score vs VEGFA/vehicle ([4]; 30 μM, female rats): did not show a statistically significant improvement
